Experimental data: a compilation of properties of binary mixtures (doi:10.1016/j.molliq.2019.110987)

Test: xn = mol fraction of the nth substance listed
Conditions: 100 kPa, x2 = 0

Work on `CN(C)C=O` + CCCC[P+](C)(CCCC)CCCC.COS(=O)(=O)[O-] yielded a speed of sound (293.15 K) of 1484.1 m/s, a viscosity (293.15 K) of 0.867 mPa·s and a speed of sound (298.15 K) of 1468.9 m/s. It also gave a viscosity (298.15 K) of 0.813 mPa·s, a speed of sound (303.15 K) of 1447.2 m/s and a viscosity (303.15 K) of 0.764 mPa·s. For the same molecule, the speed of sound (313.15 K) was 1410.2 m/s, the viscosity (313.15 K) was 0.684 mPa·s and the speed of sound (318.15 K) was 1391.2 m/s. For the same molecule, the viscosity (318.15 K) was 0.663 mPa·s.
